Test results as given in patent publication US20230405315A1, “Compositions And Methods For Treating With A Combination Of Alternating Electric Fields And FGF Inhibitors” (NOVOCURE GMBH, priority 2022, published 2023).

How the values were obtained:
[1] = tested on: GBM biopsy specimen (SRA4, SRC1, SRC2, SRB2, and SRA5) glioblastoma stem cells; experiment: Cell survival to TTFields in the presence of FGFR1 inhibitor; type: cell-based; conditions: 5 GBM biopsy specimen, 3 days of TTFields 200 kHz and PMGB 125 nM
Procedure: (§1) This study focuses on the involvement of FGFR1 in the control of sensitivity to TTFields. The study was performed on several glioblastoma stem cells (GSC) fully characterized in vitro and in vivo that were obtained from clinical trial STEMRI (NCT01872221) at Institut Claudius Regaud. The inventors wish to thank Institut Claudius Regaud for providing the glioblastoma stem cells used in these experiments.
The mechanism of radiation to induce cell death can be a result of DNA damage which leads to apoptosis, because it is known that TTFields also generate DNA damage and reduce the DNA repair mechanism. Radio sensitization is […] following addition of FGFR inhibitor. There is increased sensitivity to TTFields when there is concomitant treatment with FGFR inhibition which indicates a synergistic result of increased secretion of FGF family members in serum and conditioned media following TTFields application, thus explaining the reduced sensitivity of cells to TTFields.

[2] = tested on: FGF1, 2, 3, or 4; conditions: comparison with lenvatinib (nonselective inhibitor of FGFR); cited from earlier work
[3] = tested on: FGFR1 mRNA expression in SRC1 and SRC2 glioblastoma stem cells; experiment: FGFR1 mRNA expression by qPCR in glioblastoma stem cells treated with TTFields and FGFR inhibitor; type: cell-based; conditions: PMGB 125 nM concomitantly with TTFields 200 kHz for 3 days
Procedure: FGFR1 mRNA level was quantified by qPCR in SRC1 and SRC2 glioblastoma stem cells after 3 days treatment with TTFields (200 kHz). Results are expressed in Fold change of FGFR1 expression in cells treated with TTFields compared to FGFR1 expression in non treated cells with TTFields.
Pemigatininb (PMGB) is an FGFR inhibitor. SRC1 and SRC2 were treated concomitantly with PMGB (125 nM) and TTFields (200 kHz) for 3 days. Results are expressed in Fold change of FGFR1 expression in cells treated with TTFields compared to FGFR1 expression in control cells.
as §1

In the case of `CCN1C(=O)N(c2c(F)c(OC)cc(OC)c2F)Cc2cnc3[nH]c(CN4CCOCC4)cc3c21` [Pemigatinib], the “Cytotoxic effect / cell survival” value [1] is given as “cytotoxic effect”, the “IC50 against at least one of FGF1, 2, 3, or 4, compared with lenvatinib” value [2] is given as “significantly lower IC50” and the “FGFR1 mRNA expression induced by TTFields (fold change vs control cells)” value ([3]; listed as PMGB) is given as “inhibited”. The “FGFR1 mRNA expression induced by TTFields (fold change vs control cells)” value ([3]; listed as pemigatinib) was “inhibition”.
